Assay results: PubChem BioAssay AID1996
≈ marks a conversion by molar mass, not a printed value.

Details: buffer; pH 7.4; 200.0 µM
`Cn1cc(C(=O)N2CCOCC2)c2ccccc21` gave a solubility kinetic greater than 36.6 µg/mL. For `Cc1ccc(OCCC(=O)OC(C)C(=O)NC2CC2)cc1` (configuration not stated), the solubility kinetic was greater than 43.7 µg/mL. Work on `O=C(c1ccco1)N1CCN(C2c3ccccc3-c3ccccc32)CC1` yielded a solubility kinetic of 1 µg/mL (≈ 2.9 µM). `CCOC(=O)CCNC(=O)N1CCCC(C(=O)c2ccccc2SC)C1` (configuration not stated) showed a solubility kinetic greater than 56.8 µg/mL. For `O=C(COC(=O)CC1CCCC1)Nc1cccc(F)c1`, the solubility kinetic was greater than 41.9 µg/mL. `O=C(NCCNc1ccc([N+](=O)[O-])cc1)c1ccccc1F` gave a solubility kinetic of 3.8 µg/mL (≈ 12.5 µM). With `O=C(COC(=O)C1=COCCO1)Nc1ccccc1OC(F)F` the solubility kinetic was greater than 49.4 µg/mL. Compound `CN(C)CCN=Cc1c(O)n(Cc2ccc3c(c2)OCO3)c(=S)[nH]c1=O` has a solubility kinetic of 55.8 µg/mL (≈ 148 µM). `Cc1cc(NC(=O)C2CC2)ccc1NC(=O)c1cccs1` showed a solubility kinetic of 13.1 µg/mL (≈ 43.6 µM). Work on `Cc1ccc(S(=O)(=O)CCN2CCN(c3ccccn3)CC2)cc1` yielded a solubility kinetic greater than 51.8 µg/mL. Work on `Cc1nn(CC(=O)N2CCN(C(=O)c3ccco3)CC2)c(C)c1[N+](=O)[O-]` yielded a solubility kinetic greater than 54.2 µg/mL. `CCCn1cnc2scc(-c3ccc(C)c(C)c3)c2c1=O` showed a solubility kinetic of 1.1 µg/mL (≈ 3.69 µM). In the case of `COP(=O)(OC)C(NC(C)=O)C(Cl)(Cl)Cl` (configuration not stated), the solubility kinetic was greater than 44.8 µg/mL. Compound `Cc1nc2ccccc2c(=O)n1-c1ccc(Cl)cc1[N+](=O)[O-]` has a solubility kinetic of 7.2 µg/mL (≈ 22.8 µM). `CC(NC(=O)C(=S)N1CCN(C)CC1)c1ccccc1` (configuration not stated) showed a solubility kinetic greater than 43.7 µg/mL. Compound `COc1ccc(CCNCc2cccn2C)cc1OC.Cl` has a solubility kinetic greater than 46.6 µg/mL. `COC(=O)c1ccc(NC(=O)c2cc[n+](Cc3ccccc3)cc2)cc1.[Cl-]` showed a solubility kinetic of 50.7 µg/mL. `Cn1c(SCC(=O)Nc2cccnc2Cl)nnc1-c1ccco1` gave a solubility kinetic greater than 52.5 µg/mL. Compound `COc1cccc(Nc2ccc(C(=O)O)cc2N)c1` has a solubility kinetic greater than 38.7 µg/mL. Work on `CCN(CC(=O)NCc1ccc(F)cc1)C(=O)/C=C/c1ccco1` yielded a solubility kinetic greater than 49.6 µg/mL. For `CCCCN(C(=O)c1ccco1)C1CCS(=O)(=O)C1` (configuration not stated), the solubility kinetic was greater than 42.8 µg/mL. For `COc1cccc(OC)c1C(=O)Nc1cccc(-c2nc3ccccc3[nH]2)c1`, the solubility kinetic was 11.1 µg/mL (≈ 29.7 µM). With `COc1cc(Cl)c(C)cc1NC(=O)CN1C(=O)C2CC=CCC2C1=O` (configuration not stated) the solubility kinetic was greater than 54.4 µg/mL. In the case of `CN(/C=C/c1c([N+](=O)[O-])c(=O)n(C)c(=O)n1C)c1ccccc1`, the solubility kinetic was 4.9 µg/mL (≈ 15.5 µM). For `O=C(N1CCOCC1)N1CCN(S(=O)(=O)c2ccc(Cl)cc2)C1`, the solubility kinetic was 44.5 µg/mL (≈ 124 µM). Compound `CC(C)(C)C(=O)CSc1ncccn1` has a solubility kinetic of 24.3 µg/mL (≈ 116 µM). With `Cc1ccc(-c2nc(-c3ccncc3)no2)c(Cl)c1` the solubility kinetic was 0.5 µg/mL (≈ 1.84 µM). `CN(Cc1c(O)ccc2c1oc(=O)c1ccccc12)C1CCCCC1` gave a solubility kinetic greater than 50.6 µg/mL. For `O=C(Nc1nc2ccccc2[nH]1)NC1CCCCC1`, the solubility kinetic was 1.6 µg/mL (≈ 6.19 µM). `OCC1CCCCN1C(=S)Nc1cccc(Cl)c1` (configuration not stated) showed a solubility kinetic greater than 42.7 µg/mL. With `Cc1csc(NC(=O)c2ccc(Br)s2)n1` the solubility kinetic was 24.9 µg/mL (≈ 82.1 µM). In the case of `O=S(=O)(Nc1ccc(-c2cn3ccccc3n2)cc1)c1ccccc1`, the solubility kinetic was 1.5 µg/mL (≈ 4.29 µM). Compound `Cc1ccccc1NC(=O)c1ccc2c(c1)CCN2S(C)(=O)=O` has a solubility kinetic of 6.3 µg/mL (≈ 19.1 µM). Work on `CCCN(Cc1ccccc1)C(=S)Nc1ccc(OCC)cc1` yielded a solubility kinetic of 17.9 µg/mL (≈ 54.5 µM). In the case of `COc1cc(N)ccc1-c1cc2ccccc2oc1=O`, the solubility kinetic was greater than 40.1 µg/mL. Work on `CC(=O)NC1CCN(CC(=O)Nc2cccc([N+](=O)[O-])c2)CC1` yielded a solubility kinetic of 43.7 µg/mL (≈ 136 µM). `C=CCn1c(=O)c2ccccc2n2c(SCC(=O)NC(C)C)nnc12` showed a solubility kinetic greater than 53.6 µg/mL. For `O=C(CSc1ccccc1F)NCCCN1CCCC1=O`, the solubility kinetic was greater than 46.6 µg/mL. With `CCc1ccc(OC(=O)c2cccnc2)cc1` the solubility kinetic was 26.8 µg/mL (≈ 118 µM). Work on `O=[N+]([O-])c1cccc(/C=C/c2ccncc2)c1` yielded a solubility kinetic of 11.9 µg/mL (≈ 52.6 µM). With `COc1ccc(CN2CCc3ccccc3C2)cc1Br` the solubility kinetic was 11.3 µg/mL (≈ 34 µM). Work on `O=C(CSc1nc2c(c(=O)[nH]1)CCC2)Nc1ccc(F)cc1` yielded a solubility kinetic of 10.7 µg/mL (≈ 33.5 µM). Work on `Cc1ccc(-c2csc3ncn(C(C)C(=O)O)c(=O)c23)cc1` (configuration not stated) yielded a solubility kinetic greater than 47.2 µg/mL. For `Cc1ccsc1C(=O)OCC(=O)N1C(C)CCCC1C` (configuration not stated), the solubility kinetic was greater than 44.3 µg/mL. Compound `COc1ccccc1/C=C/C(=O)Nc1cccnc1` has a solubility kinetic greater than 38.1 µg/mL. Compound `COc1ccc(C(C)=O)cc1COc1cccc2cccnc12` has a solubility kinetic of 15.7 µg/mL (≈ 51.1 µM). Work on `O=C(Nc1cccc(Cl)c1)N1C[C@H]2C[C@@H](C1)c1cccc(=O)n1C2` yielded a solubility kinetic greater than 51.6 µg/mL.
